According to patent US9676715B2, “Bis-indolic derivatives, a process for preparing the same and their uses as a drug” (UNIVERSITE JOSEPH FOURIER, priority 2011, dated 2017):

Key:
[1] = tested on: S. aureus ATCC 106414 (VISA); test: MIC, microdilution method (9.1); format: cell-based, Staphylococcus aureus; conditions: Staphylococcus aureus, read after 18 h, read-out: MIC
Outline: (§1)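 Inocula were prepared in Mueller Hinton broth and dispensed at a final density of 5×10^5 CFU/ml. Two-fold dilutions of each indole derivative, spanning 0.50-128 mg/L final, were added, and plates were kept at 37° C. in ambient air.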

S. aureus ATCC 25923 = test: MIC, microdilution method (9.1); format: cell-based, Staphylococcus aureus; conditions: Staphylococcus aureus, ATCC25923, read after 18 h, read-out: MIC
Outline: as §1

S. aureus ATCC 29213 = test: MIC, microdilution method (9.1); format: cell-based, Staphylococcus aureus; conditions: Staphylococcus aureus, ATCC29213, read after 18 h, read-out: MIC
Outline: as §1

[2] = tested on: S. aureus ATCC 33592 (MRSA); test: MIC, microdilution method (9.1); format: cell-based, Staphylococcus aureus; conditions: Staphylococcus aureus, read after 18 h, read-out: MIC
Outline: as §1

S. aureus ATCC 6538 = test: MIC, microdilution method (9.1); format: cell-based, Staphylococcus aureus; conditions: Staphylococcus aureus, ATCC6538, read after 18 h, read-out: MIC
Outline: as §1

S. aureus ATCC 9144 = test: MIC, microdilution method (9.1); format: cell-based, Staphylococcus aureus; conditions: Staphylococcus aureus, ATCC9144, read after 18 h, read-out: MIC
Outline: as §1

S. aureus CIP 103428 = test: MIC, microdilution method (9.1); format: cell-based, Staphylococcus aureus; conditions: Staphylococcus aureus, CIP103428, read after 18 h, read-out: MIC
Outline: as §1

[3] = tested on: S. aureus CIP 65.25 (MRSA); test: MIC, microdilution method (9.1); format: cell-based, Staphylococcus aureus; conditions: Staphylococcus aureus, read after 18 h, read-out: MIC
Outline: as §1

S. aureus CIP 65.6 = test: MIC, microdilution method (9.1); format: cell-based, Staphylococcus aureus; conditions: Staphylococcus aureus, CIP65, read after 18 h, read-out: MIC
Outline: as §1

S. aureus SA-1199B = test: MIC, microdilution method (9.1); format: cell-based, Staphylococcus aureus; conditions: Staphylococcus aureus, SA1199B, 18 h
Outline: as §1

[4] = tested on: S. epidermidis ATCC 12228; test: MIC, microdilution method (9.1); format: cell-based, Staphylococcus epidermidis; conditions: Staphylococcus epidermidis, ATCC12228, read after 18 h, read-out: MIC
Outline: as §1

[5] = tested on: S. epidermidis CIP 103627; test: MIC, microdilution method (9.1); format: cell-based, Staphylococcus epidermidis; conditions: Staphylococcus epidermidis, CIP103627, read after 18 h, read-out: MIC
Outline: as §1

S. epidermidis CIP 81.55 = test: MIC, microdilution method (9.1); format: cell-based, Staphylococcus epidermidis; conditions: Staphylococcus epidermidis, CIP81, read after 18 h, read-out: MIC
Outline: as §1

[6] = tested on: Staphylococcus aureus 1199B (overexpression of the NorA efflux pump); test: Efflux pump inhibition assay with sub-inhibitory ciprofloxacin; format: cell-based; conditions: S. aureus 1199B
Protocol: (§2) The efflux pump inhibition potential of the bis-indolic derivatives was tested using two steps.
(§3) The following experimental protocol was used: indolic derivatives (initially solubilised in DMSO at 10 mg/mL) were dispensed in a 96-wells microplate by two fold serial dilutions in Muller-Hinton medium (MH, Bio Rad) using a Biomek 2000 (Beckman) handling robot. 100 μL of the bacterial inoculum (an overnight culture at 37° C. in 5 mL MH diluted 100-fold) was then added in each well. The total volume was 200 μL in each well and the final bacteria concentration 10^6 CFU/mL (CFU: colony forming unit). The highest final indolic derivative concentration was 128 mg/L. Growth was assayed with a microplate reader by monitoring absorption at 620 nm after 1, 2, 5, 7 and 24 h incubation at 37° C. In addition, the plates were read visually after 24 hours incubation. Cultures containing 5 μL DMSO were used as growth controls. In addition, two controls containing a sub-inhibitory or a inhibitory antibiotic concentration for the tested strain were performed. The antibiotics used were ampicillin (0.5 and 32 μg/mL) for E. coli, kanamycin (0.5 and 16 μg/mL) for S. aureus ATCC 25923, ciprofloxacin (4 and 64 mg/L) for S. aureus 1199B, ciprofloxacin (0.5 and 2 mg/L) for S. aureus K2378. All experiments were performed in duplicate.
(§4) Efflux pump inhibition assays were then performed against resistant Staphylococcus aureus strains SA 1199B and SA K2378 for bis-indolic derivatives. […] The minimal inhibitory concentration (MIC) of the bis-indolic compound allowing a complete inhibition of the bacterial growth in the presence of ciprofloxacin was determined.

[7] = tested on: Staphylococcus aureus K2378 (overexpresses the efflux pump NorA from a multicopy plasmid); test: as above; format: cell-based; conditions: S. aureus K2378; in the presence of ciprofloxacin 0.5 mg/L
Protocol: as §2, §3, §4

[8] = tested on: HCT116 (human colon tumor); test: In vitro cytotoxicity; format: cell-based; conditions: read-out: % of cellular growth inhibition
Protocol: (§5) In vitro cytotoxicity was assayed on three cell lines—KB (human mouth carcinoma), MCR5 (human lung fibroblast) and HCT116 (human colon tumor). Results are presented in table IV as % of cellular growth inhibition in presence of 10^−5 M and 10^−6 M of the tested bis-indolic derivatives.

[9] = tested on: KB (human mouth carcinoma); test: In vitro cytotoxicity; format: cell-based; conditions: read-out: % of cellular growth inhibition
Protocol: as §5

[10] = tested on: MRC5 (human lung fibroblast); test: In vitro cytotoxicity; format: cell-based; conditions: read-out: % of cellular growth inhibition
Protocol: as §5

S. aureus = conditions: penicillin M compounds; cited from earlier work

O=C(NC(C(=O)O)c1c[nH]c2ccc(Br)cc12)c1c[nH]c2ccc(Br)cc12 (stereo not shown) [Compound 12, 2-(5-Bromo-1H-indol-3-yl)-2-(5-bromo-1H-indole-3-carboxamido) acetic acid]
MIC [1]: > 32 µg/mL
MIC (S. aureus ATCC 25923): > 32 µg/mL
MIC (S. aureus ATCC 29213): > 32 µg/mL
MIC [2]: > 32 µg/mL
MIC (S. aureus ATCC 6538): > 32 µg/mL
MIC (S. aureus ATCC 9144): > 32 µg/mL
MIC (S. aureus CIP 103428): > 32 µg/mL
MIC [3]: > 32 µg/mL
MIC (S. aureus CIP 65.6): > 32 µg/mL
MIC (S. aureus SA-1199B): > 32 µg/mL
MIC [4]: > 32 µg/mL
MIC [5]: > 32 µg/mL
MIC (S. epidermidis CIP 81.55): > 32 µg/mL
MIC, mg/L (Ciprofloxacin concentration, mg/L) ([6]; in the presence of ciprofloxacin 2 mg/L): 32 (2) mg/L
MIC, mg/L (Ciprofloxacin concentration, mg/L) ([6]; in the presence of ciprofloxacin 4 mg/L): 64 (4) mg/L
MIC, mg/L (Ciprofloxacin concentration, mg/L) [7]: 64 (0.5) mg/L
inhibition at 10 µM ([8]; HCT-116, 10^−5 M): 0%
inhibition at 1 µM ([8]; HCT-116, 10^−6 M): 0%
inhibition at 10 µM ([9]; 10^−5 M): 0%
inhibition at 1 µM ([9]; 10^−6 M): 0%
inhibition at 10 µM ([10]; 10^−5 M): 3 ± 3%
inhibition at 1 µM ([10]; 10^−6 M): 3%
melting point: 195 °C

COc1cccc(OC)c1C(=O)N[C@@H]1C(=O)N2[C@@H]1SC(C)(C)[C@@H]2C(=O)O [methicillin]
mutation frequency (S. aureus): ~10^−9

Cc1onc(-c2ccccc2)c1C(=O)N[C@@H]1C(=O)N2[C@@H]1SC(C)(C)[C@@H]2C(=O)O [oxacillin]
mutation frequency (S. aureus): ~10^−9
